Assay results from ChEMBL document CHEMBL3639364, “Preparation method of dihydroindene amide compounds, their pharmaceutical compositions containing compounds thereof and use as protein kinases inhibitor” (2014).

Tests used:
[1] = target: Mast/stem cell growth factor receptor Kit (Homo sapiens, UniProt P10721); experiment: (§1) Kinase buffer: 62.5 mM HEPES, pH 7.5; 0.001875% Brij-35; 12.5 mM MgCl2; 2.5 mM DTT. Stop buffer: 100 mM HEPES, pH 7.5; 0.015% Brij-35; 0.2% coating agent 3; 50 mM EDTA. Preparation of kinase solution: Kinase solution was obtained by dissolving kinases in the kinase buffer mentioned above. With regard to c-Kit kinase, the pre-activation treatments should be carried out as follows. 700 nM c-Kit, 2 mM ATP, 4 mM DTT and 10 mM MgCl2 were dissolved in kinase buffer. After being incubated at 28° C. for 15 minutes, the solution was added to the kinase buffer.
Chain of Mast/stem cell growth factor receptor Kit (P10721 whole entry): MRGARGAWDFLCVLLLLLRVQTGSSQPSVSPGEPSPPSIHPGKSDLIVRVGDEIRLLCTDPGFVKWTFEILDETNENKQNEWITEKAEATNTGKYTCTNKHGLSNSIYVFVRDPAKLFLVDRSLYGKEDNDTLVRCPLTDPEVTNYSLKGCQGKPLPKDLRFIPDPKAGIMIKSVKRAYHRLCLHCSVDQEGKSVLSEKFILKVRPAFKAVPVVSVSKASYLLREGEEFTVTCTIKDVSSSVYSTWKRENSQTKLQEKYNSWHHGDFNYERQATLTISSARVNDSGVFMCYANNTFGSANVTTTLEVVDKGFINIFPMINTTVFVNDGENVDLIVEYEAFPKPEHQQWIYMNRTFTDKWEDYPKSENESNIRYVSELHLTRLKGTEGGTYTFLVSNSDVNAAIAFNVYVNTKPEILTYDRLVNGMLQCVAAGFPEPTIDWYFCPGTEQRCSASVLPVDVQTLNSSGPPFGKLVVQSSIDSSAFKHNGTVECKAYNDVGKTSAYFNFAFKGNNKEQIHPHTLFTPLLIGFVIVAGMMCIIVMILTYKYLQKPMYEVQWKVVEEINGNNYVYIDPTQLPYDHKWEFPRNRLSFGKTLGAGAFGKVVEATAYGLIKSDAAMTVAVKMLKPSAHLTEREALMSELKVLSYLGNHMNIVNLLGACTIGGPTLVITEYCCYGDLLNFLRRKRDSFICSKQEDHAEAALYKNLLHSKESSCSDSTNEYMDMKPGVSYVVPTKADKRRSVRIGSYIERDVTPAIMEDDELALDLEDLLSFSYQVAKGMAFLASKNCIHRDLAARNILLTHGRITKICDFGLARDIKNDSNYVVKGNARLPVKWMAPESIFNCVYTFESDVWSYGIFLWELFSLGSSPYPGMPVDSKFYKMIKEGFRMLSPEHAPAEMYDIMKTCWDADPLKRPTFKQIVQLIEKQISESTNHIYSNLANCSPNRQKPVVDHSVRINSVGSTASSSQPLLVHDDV

[2] = target: Platelet-derived growth factor receptor beta (Homo sapiens, UniProt P09619); experiment: as §1
Chain of Platelet-derived growth factor receptor beta (P09619 whole entry): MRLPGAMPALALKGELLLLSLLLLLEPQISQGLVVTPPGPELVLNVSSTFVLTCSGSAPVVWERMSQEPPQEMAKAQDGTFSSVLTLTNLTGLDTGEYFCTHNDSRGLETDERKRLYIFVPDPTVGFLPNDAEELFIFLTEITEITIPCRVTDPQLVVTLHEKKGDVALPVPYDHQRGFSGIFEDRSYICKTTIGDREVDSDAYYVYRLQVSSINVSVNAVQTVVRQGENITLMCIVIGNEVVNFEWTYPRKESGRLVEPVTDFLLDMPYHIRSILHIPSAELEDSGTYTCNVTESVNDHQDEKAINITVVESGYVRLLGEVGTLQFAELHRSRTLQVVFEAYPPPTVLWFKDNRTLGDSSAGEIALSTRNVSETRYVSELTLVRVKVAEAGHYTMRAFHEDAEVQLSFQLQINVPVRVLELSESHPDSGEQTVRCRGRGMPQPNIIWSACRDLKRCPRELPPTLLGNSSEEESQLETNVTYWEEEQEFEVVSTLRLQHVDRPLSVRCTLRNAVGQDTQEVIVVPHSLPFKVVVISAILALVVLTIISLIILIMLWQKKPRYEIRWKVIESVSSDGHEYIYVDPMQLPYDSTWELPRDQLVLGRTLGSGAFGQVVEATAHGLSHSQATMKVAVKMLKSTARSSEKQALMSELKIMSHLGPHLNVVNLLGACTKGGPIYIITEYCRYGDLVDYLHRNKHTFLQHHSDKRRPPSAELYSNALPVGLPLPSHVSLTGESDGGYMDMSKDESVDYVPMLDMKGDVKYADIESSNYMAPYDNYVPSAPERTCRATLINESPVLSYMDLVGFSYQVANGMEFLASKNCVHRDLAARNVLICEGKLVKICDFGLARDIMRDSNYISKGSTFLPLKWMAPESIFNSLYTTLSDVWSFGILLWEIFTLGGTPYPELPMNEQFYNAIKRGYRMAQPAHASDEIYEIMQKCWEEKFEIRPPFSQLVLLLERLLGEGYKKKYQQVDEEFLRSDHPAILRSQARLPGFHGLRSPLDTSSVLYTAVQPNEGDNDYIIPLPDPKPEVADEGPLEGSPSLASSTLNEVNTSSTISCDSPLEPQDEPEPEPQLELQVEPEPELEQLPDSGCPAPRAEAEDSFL

| Compound | IC50 [1] [nM] | IC50 [2] [nM] |
| --- | --- | --- |
| CCN1CCN(C2CCc3cc(C(=O)Nc4ccc(C)c(Nc5nccc(-c6cccnc6)n5)c4)ccc32)CC1 (centres undefined) | 26 | 15 |
| Cc1ccc(NC(=O)c2ccc3c(c2)CCC3N2CC[C@@H](N(C)C)C2)cc1Nc1nccc(-c2cccnc2)n1 (some centres undefined) | 32 | 21 |
